From BindingDB's records for doi:10.7270/Q2JQ0ZF7 (Nmmlsc, 2009) come the findings set out here.

In this test the target is T1, GTPase KRas [1-37] (Homo sapiens, UniProt G3V5T7).
T1 construct: 1-37
The test is described as follows: Ras wild-type GTP-binding inhibitors, SAR follow-up, biochemical, oxadiazole analogs, multiplex bead flow cytometry (AID 2053). Background: In flow cytometry, cells or beads pass a laser one at a time.

Where [1] appears, read: inactive by the depositor's call.

T1 sequence (G3V5T7 whole entry): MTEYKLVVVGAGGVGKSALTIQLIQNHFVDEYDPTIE

For orientation: EC50 means the concentration giving half of the maximal effect. For the compound `COc1cccc(-c2noc(CCC(=O)N3CCN(c4cc(C)ccc4C)CC3)n2)c1`, the EC50 under setting [1] is 1.49 µM. Compound `Cc1ccc(C)c(N2CCN(C(=O)CCc3nc(-c4ccccc4C)no3)CC2)c1` had an EC50 of more than 30 µM. For the compound `COc1ccc(-c2noc(CCC(=O)N3CCN(c4cccc(Cl)c4)CC3)n2)cc1`, the EC50 is more than 30 µM. As for `Cc1ccc(C)c(N2CCN(C(=O)CCc3nc(-c4ccccc4C(F)(F)F)no3)CC2)c1`, the EC50 is more than 30 µM.

`COc1ccc(-c2noc(CCC(=O)N3CCN(c4ccccc4C)CC3)n2)cc1`: the EC50 was more than 30 µM.

With `COc1ccc(-c2ccc(CCC(=O)N3CCN(c4cc(C)ccc4C)CC3)s2)cc1`, the EC50 was more than 30 µM.

Take `COc1ccc(-c2noc(CCC(=O)N3CCN(c4cccc(C)c4C)CC3)n2)cc1` [1-[4-(2,3-dimethylphenyl)-1-piperazinyl]-3-[3-(4-methoxyphenyl)-1,2,4-oxadiazol-5-yl]-1-propanone]: the EC50 was more than 30 µM.

`COc1ccc(-c2noc(CCC(=O)N3CCN(c4cc(C)ccc4C)CC3)n2)cc1` [1-[4-(2,5-dimethylphenyl)-1-piperazinyl]-3-[3-(4-methoxyphenyl)-1,2,4-oxadiazol-5-yl]-1-propanone] registered an EC50 under setting [1] of 1.71 µM. The compound `Cc1ccc(-c2noc(CCC(=O)N3CCN(c4cc(C)ccc4C)CC3)n2)cc1` [1-[4-(2,5-dimethylphenyl)-1-piperazinyl]-3-[3-(4-methylphenyl)-1,2,4-oxadiazol-5-yl]-1-propanone] displayed an EC50 of more than 30 µM. Still for that read-out and setting: with `Cc1ccc(C)c(N2CCN(C(=O)CCc3nc(-c4ccc(C(F)(F)F)cc4)no3)CC2)c1` [1-[4-(2,5-dimethylphenyl)-1-piperazinyl]-3-[3-[4-(trifluoromethyl)phenyl]-1,2,4-oxadiazol-5-yl]-1-propanone] the figure was more than 30 µM. For `COc1ccc(-c2noc(CCCCC(=O)N3CCN(c4cc(C)ccc4C)CC3)n2)cc1` [1-[4-(2,5-dimethylphenyl)-1-piperazinyl]-5-[3-(4-methoxyphenyl)-1,2,4-oxadiazol-5-yl]-1-pentanone], the EC50 was more than 30 µM. Turning to `COc1ccc(-c2noc(CC(=O)N3CCN(c4cc(C)ccc4C)CC3)n2)cc1` [1-[4-(2,5-dimethylphenyl)piperazin-1-yl]-2-[3-(4-methoxyphenyl)-1,2,4-oxadiazol-5-yl]ethanone], the EC50 was more than 30 µM. The compound `Cc1cccc(-c2noc(CCC(=O)N3CCN(c4cc(C)ccc4C)CC3)n2)c1` [1-[4-(2,5-dimethylphenyl)piperazin-1-yl]-3-[3-(3-methylphenyl)-1,2,4-oxadiazol-5-yl]propan-1-one] displayed an EC50 of more than 30 µM. Consider `COc1ccc(-c2cc(CCC(=O)N3CCN(c4cc(C)ccc4C)CC3)on2)cc1` [1-[4-(2,5-dimethylphenyl)piperazin-1-yl]-3-[3-(4-methoxyphenyl)-1,2-oxazol-5-yl]propan-1-one], for which the EC50 was more than 30 µM. The same measure, in the same setting: with `COc1ccc(-c2coc(CCC(=O)N3CCN(c4cc(C)ccc4C)CC3)n2)cc1` [1-[4-(2,5-dimethylphenyl)piperazin-1-yl]-3-[4-(4-methoxyphenyl)-1,3-oxazol-2-yl]propan-1-one] the figure was more than 30 µM. Consider `COc1ccc(-c2ccc(CCC(=O)N3CCN(c4cc(C)ccc4C)CC3)[nH]2)cc1` [1-[4-(2,5-dimethylphenyl)piperazin-1-yl]-3-[5-(4-methoxyphenyl)-1H-pyrrol-2-yl]propan-1-one], for which the EC50 was more than 30 µM. Under setting [1], `COc1ccc(-c2noc(CCC(=O)N3CCN(c4ccccc4Cl)CC3)n2)cc1` [1-[4-(2-chlorophenyl)piperazin-1-yl]-3-[3-(4-methoxyphenyl)-1,2,4-oxadiazol-5-yl]propan-1-one] gave an EC50 of 1.87 µM.

Turning to `COc1ccc(-c2noc(CCC(=O)N3CCN(c4ccccc4F)CC3)n2)cc1` [1-[4-(2-fluorophenyl)piperazin-1-yl]-3-[3-(4-methoxyphenyl)-1,2,4-oxadiazol-5-yl]propan-1-one], the EC50 under setting [1] came out at 0.05 µM. As to `COc1ccc(-c2noc(CCC(=O)N3CCN(c4cccc(Br)c4)CC3)n2)cc1` [1-[4-(3-bromophenyl)-1-piperazinyl]-3-[3-(4-methoxyphenyl)-1,2,4-oxadiazol-5-yl]-1-propanone], the EC50 under setting [1] came to 0.017 µM. In turn, `COc1ccc(-c2noc(CCC(=O)N3CCN(c4cccc(F)c4)CC3)n2)cc1` [1-[4-(3-fluorophenyl)piperazin-1-yl]-3-[3-(4-methoxyphenyl)-1,2,4-oxadiazol-5-yl]propan-1-one] returned an EC50 of more than 30 µM. Turning to `COc1ccc(-c2noc(CCC(=O)N3CCN(c4ccc(Br)cc4)CC3)n2)cc1` [1-[4-(4-bromophenyl)piperazin-1-yl]-3-[3-(4-methoxyphenyl)-1,2,4-oxadiazol-5-yl]propan-1-one], the EC50 was more than 30 µM. Same read-out and setting: with `COc1ccc(-c2noc(CCC(=O)N3CCN(c4cccc(C(F)(F)F)c4)CC3)n2)cc1` [1-{3-[3-(4-methoxyphenyl)-1,2,4-oxadiazol-5-yl]propanoyl}-4-[3-(trifluoromethyl)phenyl]piperazine] the figure was more than 30 µM.

For the compound `Cc1ccc(C)c(N2CCN(C(=O)CCc3nc(-c4ccccc4Br)no3)CC2)c1` [3-[3-(2-bromophenyl)-1,2,4-oxadiazol-5-yl]-1-[4-(2,5-dimethylphenyl)-1-piperazinyl]-1-propanone], the EC50 under setting [1] is 0.033 µM.

For the compound `Cc1ccc(C)c(N2CCN(C(=O)CCc3nc(-c4ccccc4Cl)no3)CC2)c1` [3-[3-(2-chlorophenyl)-1,2,4-oxadiazol-5-yl]-1-[4-(2,5-dimethylphenyl)-1-piperazinyl]-1-propanone], the EC50 is more than 30 µM. With `COc1ccc(-c2noc(CCC(=O)N3CCN(c4ccccc4)CC3)n2)cc1` [3-[3-(4-methoxyphenyl)-1,2,4-oxadiazol-5-yl]-1-(4-phenylpiperazin-1-yl)propan-1-one], the EC50 was more than 30 µM.

Compound `COc1ccc(-c2noc(CCC(=O)N3CCN(c4ccccc4OC)CC3)n2)cc1` [3-[3-(4-methoxyphenyl)-1,2,4-oxadiazol-5-yl]-1-[4-(2-methoxyphenyl)-1-piperazinyl]-1-propanone] displayed an EC50 of more than 30 µM. Still for that read-out and setting: with `COc1ccc(-c2noc(CCC(=O)N3CCN(c4ccc(OC)cc4)CC3)n2)cc1` [3-[3-(4-methoxyphenyl)-1,2,4-oxadiazol-5-yl]-1-[4-(4-methoxyphenyl)piperazin-1-yl]propan-1-one] the figure was more than 30 µM; with `COc1ccc(-c2noc(CCC(=O)N3CCN(c4ccc(C)cc4)CC3)n2)cc1` [3-[3-(4-methoxyphenyl)-1,2,4-oxadiazol-5-yl]-1-[4-(4-methylphenyl)piperazin-1-yl]propan-1-one], more than 30 µM; with `COc1ccc(-c2noc(CCC(=O)N3CCN(c4ccc(C(F)(F)F)cc4)CC3)n2)cc1` [3-[3-(4-methoxyphenyl)-1,2,4-oxadiazol-5-yl]-1-[4-[4-(trifluoromethyl)phenyl]piperazin-1-yl]propan-1-one], more than 30 µM. Still for that read-out and setting: with `COc1ccc(-c2noc(CCC(=O)N3CCN(c4cccc(OC)c4)CC3)n2)cc1` [KUC103349N] the figure was more than 30 µM. On the same count and under the same terms, with `COc1ccc(-c2noc(CCCC(=O)N3CCN(c4cc(C)ccc4C)CC3)n2)cc1` [KUC103353N] the figure was more than 30 µM; with `Cc1ccc(C)c(N2CCN(C(=O)CCc3nc(-c4ccc(F)cc4)no3)CC2)c1` [KUC103364N], more than 30 µM. With `Cc1ccc(C)c(N2CCN(C(=O)CCc3nc(-c4cccc(F)c4)no3)CC2)c1` [KUC103366N], the EC50 is more than 30 µM.

`Cc1ccc(C)c(N2CCN(C(=O)CCc3nc(-c4cccc(Br)c4)no3)CC2)c1` [KUC103367N]: the EC50 is more than 30 µM. Still for that read-out and setting: with `COc1ccc(-c2noc(CCC(=O)N3CCN(c4ccccc4Br)CC3)n2)cc1` [KUC103370N] the figure was more than 30 µM. Same read-out and setting: with `Cc1ccc(C)c(N2CCN(C(=O)CCc3nc(-c4cccc(C(F)(F)F)c4)no3)CC2)c1` [KUC103380N] the figure was more than 30 µM. Still for that read-out and setting: with `COc1ccc(-c2noc(CCC(=O)N3CCN(c4ccc(F)cc4)CC3)n2)cc1` [KUC103398N] the figure was more than 30 µM; with `Cc1ccc(C)c(N2CCN(C(=O)CCc3nc(-c4ccccc4F)no3)CC2)c1` [KUC103401N], more than 30 µM; with `Cc1ccc(C)c(N2CCN(C(=O)CCc3nc(-c4ccc(N(C)C)cc4)no3)CC2)c1` [KUC103409N], more than 30 µM. In turn, `COc1ccc(-c2noc(CCC(=O)N3CCC(c4cc(C)ccc4C)CC3)n2)cc1` [KUC103432N] registered an EC50 of more than 30 µM. Same read-out and setting: with `COc1ccc(-c2ccc(CCC(=O)N3CCN(c4cc(C)ccc4C)CC3)o2)cc1` [KUC103447N] the figure was more than 30 µM.

Under setting [1], `Cc1ccc(C)c(N2CCN(C(=O)CCc3nc(-c4ccccc4)no3)CC2)c1` [UNM-0000306070] registered an EC50 of 0.869 µM. Turning to `COc1ccccc1-c1noc(CCC(=O)N2CCN(c3cc(C)ccc3C)CC2)n1` [UNM-0000306071], the EC50 was more than 30 µM. `Cc1ccc(C)c(N2CCN(C(=O)CCc3nc(-c4ccc(Br)cc4)no3)CC2)c1` [UNM-0000306072]: the EC50 under setting [1] worked out at 1.83 µM. The compound `COc1ccc(-c2noc(CCC(=O)N3CCN(c4ccccc4C(F)(F)F)CC3)n2)cc1` [UNM-0000306082] had an EC50 of more than 30 µM. On the same count and under the same terms, with `Cc1ccc(C)c(N2CCN(C(=O)CCc3nc(-c4ccc(Cl)cc4)no3)CC2)c1` [UNM-0000306083] the figure was more than 30 µM; with `Cc1ccc(C)c(N2CCN(C(=O)CCc3nc(-c4cccc(Cl)c4)no3)CC2)c1` [UNM-0000306086], more than 30 µM. On the same count and under the same terms, with `COc1ccc(-c2noc(CCC(=O)N3CCN(c4ccc(Cl)cc4)CC3)n2)cc1` [UNM-0000306121] the figure was more than 30 µM. On the same count and under the same terms, with `COc1ccc(-c2noc(CCC(=O)N3CCN(c4cccc(C)c4)CC3)n2)cc1` [UNM-0000306125] the figure was more than 30 µM; with `COc1ccc(-c2cccc(CCC(=O)N3CCN(c4cc(C)ccc4C)CC3)c2)cc1` [UNM-0000306127], more than 30 µM; with `COc1ccc(-c2cc(CCC(=O)N3CCN(c4cc(C)ccc4C)CC3)[nH]n2)cc1` [UNM-0000306150], more than 30 µM.
